Article PMC12461339, “Benzoylselenoureas: A Novel Dual-Action Inhibitor Targeting Fungal Growth and Urease Activity in Cryptococcus neoformans” (ACS Omega, 2025)
Converted amounts (≈) assume the structure as drawn. “And” between values parts separate entries of the source, which are not always exact repeats. Identical values can stand only once. Like-named read-outs stand apart in the source and are kept apart here.

Tests used:
[1] = test system: C. neoformans H99; test: Broth microdilution antifungal assay (MIC) in RPMI or urea medium; format: cell-based; conditions: Cryptococcus neoformans
Experimental: (§1) C. neoformans H99 (or ATCC 208821), a standard strain, was used to evaluate the antifungal activity of BSU1-BSU11 and BTU1-BTU11 compounds using the broth microdilution method. The assay was performed in two different culture media: the standard medium RPMI 1640 buffered with […] (RMPI), and the Christensen broth (urea medium: 1 g/L peptone, 1 g/L dextrose, 5 g/L sodium chloride, 2 g/L potassium phosphate, 20 g/L urea, 12 mg/L phenol red, pH 7.0). The compounds were dissolved in dimethyl sulfoxide (DMSO) and diluted in both media, obtaining final concentrations from 0.03 to 128 mg/L in a 96-well plate and final DMSO concentration below 0.5%, considered nontoxic. For assay, yeasts were distributed in each well to obtain a final inoculum of 0.5–2.5 × 10^3 CFU/mL, and the plate was incubated at 35 °C for 48 h.
(§2) The MIC values were determined in both media and were defined as the lowest concentrations of BSU1-BSU11 and BTU1-BTU11 that inhibited 50% of fungal growth visually compared with untreated yeasts (growth control). In addition, the urease activity was indicated by medium color change from orange to pink due to ammonia production and the MICure was defined as the lowest concentration that inhibited the urease activity by visual inspection in urea medium with no color changes. For both assays, two controls were included: untreated yeast group for observation of fungal growth pattern or intracellular urease activity, and wells containing only medium for assay sterility control.

[2] = molecular target: T1, yeast urease activity (Cryptococcus neoformans, UniProt O13465); test: Inhibition of yeast urease activity in urea (Christensen) medium, colour change (MICure); format: cell-based
T1 construct: endogenous in cells; host or cells: Cryptococcus neoformans H99 (ATCC 208821) yeasts in Christensen urea broth
T1 sequence (O13465 whole entry): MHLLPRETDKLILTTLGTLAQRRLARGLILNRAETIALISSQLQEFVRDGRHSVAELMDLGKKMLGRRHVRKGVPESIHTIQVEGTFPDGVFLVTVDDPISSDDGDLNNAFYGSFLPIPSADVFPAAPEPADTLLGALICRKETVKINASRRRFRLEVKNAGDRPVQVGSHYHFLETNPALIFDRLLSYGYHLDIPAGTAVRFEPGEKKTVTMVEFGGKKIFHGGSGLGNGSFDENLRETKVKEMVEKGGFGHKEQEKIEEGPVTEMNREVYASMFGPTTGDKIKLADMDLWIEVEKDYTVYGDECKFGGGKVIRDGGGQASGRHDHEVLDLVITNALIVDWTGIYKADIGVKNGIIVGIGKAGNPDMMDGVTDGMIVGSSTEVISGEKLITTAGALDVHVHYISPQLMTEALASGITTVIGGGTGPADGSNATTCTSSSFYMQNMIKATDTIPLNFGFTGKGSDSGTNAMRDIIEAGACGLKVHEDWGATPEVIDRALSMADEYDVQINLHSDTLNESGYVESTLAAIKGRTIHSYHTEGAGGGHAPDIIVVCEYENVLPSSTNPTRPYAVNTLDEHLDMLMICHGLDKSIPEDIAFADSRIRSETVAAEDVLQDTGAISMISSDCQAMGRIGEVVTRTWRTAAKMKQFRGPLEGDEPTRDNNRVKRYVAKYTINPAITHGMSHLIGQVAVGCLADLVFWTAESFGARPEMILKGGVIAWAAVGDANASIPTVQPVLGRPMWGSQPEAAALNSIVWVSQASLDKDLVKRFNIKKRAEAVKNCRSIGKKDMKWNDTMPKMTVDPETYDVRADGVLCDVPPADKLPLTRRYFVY
Experimental: The inhibitory activity against yeast urease was assessed using Christensen’s medium, which contains urea to induce URE1 gene expression. […] Even in the presence of fungal growth, inhibition of urease activity was evidenced by the absence of medium color change, indicating suppressed ammonia production.
as §1, §2

[3] = molecular target: T2, C. neoformans urease (Cryptococcus neoformans, UniProt O13465); test: Urease activity in crude protein extract, indophenol method; format: biochemical; conditions: ureIC50, BSU series
T2 construct: endogenous in cells; host or cells: Cryptococcus neoformans H99, lysed by sonication; dialysed and lyophilised soluble fraction (total protein)
T2 sequence (O13465 whole entry): as above
Experimental: C. neoformans H99 yeasts were cultivated in 100 mL of Christensen broth for 72 h at 35 °C by shaking at 200 rpm for the obtention of urease as previously described. Briefly, the yeasts were ruptured using a lysis buffer (40 mM Tris-HCl, 20 mM dithiothreitol, 4% Triton X-100, 1 mM ethylenediaminetetraacetic acid, 2 mM phenylmethylsulfonyl fluoride, protease inhibitor cocktail) and an ultrasonic sonicator. After centrifugation, the soluble fraction was dialyzed in a dialysis membrane submerged in 10 mM sodium phosphate buffer, pH 7.0; the sample was lyophilized and stored at −20 °C. Before the assay, the sample was resuspended in 1 mL of sodium phosphate buffer (10 mM, pH 7.0), and the total protein was quantified by the Bradford method.
The urease activity was determined by the indophenol method. In a 96-well microplate, 10 μL of 100 mM urea was added to 45 μL of total protein and 45 μL of BSU1-BSU11 (concentrations of 0.06–1000 μg/L) in phosphate buffer. The reaction was maintained for 10 min under shaking at 600 rpm, at room temperature. Then, 45 μL of solution A (1% phenol; 0.005% sodium nitroprusside) and 70 μL of solution B (0.5% sodium hydroxide; 0.1% sodium hypochlorite) were immediately added to the wells in the dark and incubated for 5 min at 50 °C under shaking at 600 rpm. Urease activity was quantified by measuring absorbance at 670 nm. The inhibitory concentration capable of inhibiting 50% of urease activity (ureIC50) was determined by nonlinear regression calculation using the GraphPad Prism 5.0 software.

[4] = test system: C. neoformans H99; test: Minimum fungicidal concentration by subculturing after MIC reading; format: cell-based; conditions: Cryptococcus neoformans
Experimental: After MIC readings, the MFC values were determined by subculturing, at 35 °C for 48 h, of all concentrations that inhibited the fungal growth; and then MFC was defined as the lowest concentration of the compound capable of reducing ≥99% viability of the initial fungal inoculum. ,

[5] = H99, Table S1, RPMI medium, C. neoformans H99, read-out: MIC
[6] = H99, Table S1, urea medium, C. neoformans H99, read-out: MIC
[7] = BSU series, 100% inhibition of yeast urease activity in urea medium
[8] = Table S1, urea medium, 100% inhibition of yeast urease activity
[9] = H99, Table S1, RPMI medium line, read-out: MFC
[10] = H99, Table S1, urea medium line, read-out: MFC
[11] = H99, 48 h, read-out: MIC RPMI, BSU series, 50% inhibition of fungal growth, RPMI medium, 35 °C, 48 h
[12] = H99, 48 h, read-out: MIC urea, BSU series, 50% inhibition of fungal growth, urea medium, 35 °C, 48 h
[13] = H99, Table S1, RPMI medium, C. neoformans H99
[14] = H99, Table S1, urea medium, C. neoformans H99
[15] = H99, BSU series, after assay in RPMI medium, ≥99% reduction of viability
[16] = H99, Table S1, RPMI medium line
[17] = H99, Table S1, urea medium line

| Compound | MICURE [2, 7] [mg/L] | MICURE [2, 8] [mg/L] | IC50 [3] | MIC [1, 11] [µg/mL] | MIC [1, 12] [µg/mL] | MIC [1, 13] [µg/mL] | MIC [1, 14] [µg/mL] | MFC [4, 15] [µg/mL] | MFC [4, 16] [µg/mL] | MFC [4, 17] [µg/mL] | other results |
| --- | --- | --- | --- | --- | --- | --- | --- | --- | --- | --- | --- |
| O=C(NC(=[Se])Nc1ccccc1)c1ccccc1 [BSU1] | 0.06 | 0.06 | 4.88 nM |  |  |  |  |  |  |  | MIC ([1]; H99, 48 h, BSU series, 50% inhibition of fungal growth, RPMI medium, 35 °C, 48 h, read-out: MIC RPMI): 2 µg/mL (≈ 6.6 µM); MIC ([1]; H99, 48 h, BSU series, 50% inhibition of fungal growth, urea medium, 35 °C, 48 h, read-out: MIC urea): 0.06 µg/mL (≈ 0.198 µM); MIC [1, 5]: 2 µg/mL (≈ 6.6 µM); MIC [1, 6]: 0.06 µg/mL (≈ 0.198 µM); MFC ([4]; H99, BSU series, after assay in RPMI medium, ≥99% reduction of viability, read-out: MFC): 2 µg/mL (≈ 6.6 µM); MFC [4, 9]: 2 µg/mL (≈ 6.6 µM); MFC [4, 10]: 0.12 µg/mL (≈ 0.396 µM) |
| Cc1ccc(NC(=[Se])NC(=O)c2ccccc2)cc1 [BSU2] | 0.5 | 0.5 | 1.07 nM | 16 (≈ 50.4 µM) | 0.5 (≈ 1.58 µM) | 16 (≈ 50.4 µM) | 0.5 (≈ 1.58 µM) | 16 (≈ 50.4 µM) | 16 (≈ 50.4 µM) | 1 (≈ 3.15 µM) |  |
| CC(C)(C)c1ccc(NC(=[Se])NC(=O)c2ccccc2)cc1 [BSU3] |  | 16 | 0.95 nM and 0.946 nM | > 128 | > 128 | > 16 | 16 (≈ 44.5 µM) | > 128 | > 16 | > 16 |  |
| COc1ccccc1NC(=[Se])NC(=O)c1ccccc1 [BSU4] | 0.5 | 0.25 | 2.33 nM and 2.34 nM | 8 (≈ 24 µM) | 0.5 (≈ 1.5 µM) | 16 (≈ 48 µM) | 0.5 (≈ 1.5 µM) | 8 (≈ 24 µM) | 16 (≈ 48 µM) | 0.5 (≈ 1.5 µM) |  |
| COc1cccc(NC(=[Se])NC(=O)c2ccccc2)c1 [BSU5] | 0.12 | 0.12 | 14 nM | 1 (≈ 3 µM) | 0.12 (≈ 0.36 µM) | 8 (≈ 24 µM) | 0.25 (≈ 0.75 µM) | 1 (≈ 3 µM) | 16 (≈ 48 µM) | 0.25 (≈ 0.75 µM) |  |
| O=C(NC(=[Se])Nc1ccc(Cl)cc1)c1ccccc1 [BSU6] | 0.25 | 8 | 3.02 nM | 16 (≈ 47.4 µM) | 0.5 (≈ 1.48 µM) | > 16 | 8 (≈ 23.7 µM) | 16 (≈ 47.4 µM) | > 16 | 16 (≈ 47.4 µM) |  |
| O=C(NC(=[Se])Nc1cccc(Cl)c1)c1ccccc1 [BSU7] | 0.12 | 0.06 | 7.59 nM and 7.58 nM | 8 (≈ 23.7 µM) | 0.25 (≈ 0.74 µM) | 4 (≈ 11.8 µM) | 0.12 (≈ 0.355 µM) | 16 (≈ 47.4 µM) | 4 (≈ 11.8 µM) | 0.25 (≈ 0.74 µM) |  |
| O=C(NC(=[Se])Nc1ccc(Br)cc1)c1ccccc1 [BSU8] | 8 | 0.5 | 4.04 nM and 4.03 nM | 128 (≈ 335 µM) | 8 (≈ 20.9 µM) | 8 (≈ 20.9 µM) | 0.5 (≈ 1.31 µM) | > 128 | 8 (≈ 20.9 µM) | 0.5 (≈ 1.31 µM) |  |
| O=C(NC(=S)Nc1ccccc1)c1ccccc1 [BTU1] |  | 32 |  |  |  |  |  |  |  |  | MIC ([1]; H99, BTU series, 50% inhibition of fungal growth, RPMI medium, read-out: MIC RPMI): > 128 µg/mL; MIC ([1]; H99, BTU series, 50% inhibition of fungal growth, urea medium, read-out: MIC urea): 32 µg/mL (≈ 125 µM); MIC [1, 5]: > 128 µg/mL; MIC [1, 6]: 32 µg/mL (≈ 125 µM); MICURE ([2]; BTU series, 100% inhibition of yeast urease activity in urea medium): 32 mg/L; MFC ([4]; H99, BTU series, after assay in RPMI medium, read-out: MFC): > 128 µg/mL; MFC [4, 9]: > 128 µg/mL; MFC [4, 10]: 128 µg/mL (≈ 499 µM) |
